# Assays:
# Test in all cases: KINOMEscan competition binding
# Conditions in all cases: compound 10.0 µM
# STK32C (human) = STK32C (human) (UniProt Q86UX6)
# [1] = test system: PIK3CA (human), P42336 [E545K]
# EPHA6 (human) = EPHA6 (human) (UniProt Q9UF33)
# PIP4K2B (human) = PIP4K2B (human) (UniProt P78356)
# DCLK3 (human) = DCLK3 (human) (UniProt Q9C098)
# PRKD1 (human) = PRKD1 (human) (UniProt Q15139)
# STK39 (human) = STK39 (human) (UniProt Q9UEW8)
# [2] = molecular target: TYK2 JH1 catalytic (human) (UniProt P29597)
# MAPK7 (human) = MAPK7 (human) (UniProt Q13164)
# AKT3 (human) = AKT3 (human) (UniProt Q9Y243)
# SRMS (human) = SRMS (human) (UniProt Q9H3Y6)
# CDK14 (human) = CDK14 (human) (UniProt O94921)
# PIP5K1C (human) = PIP5K1C (human) (UniProt O60331)
# [3] = molecular target: TYK2 JH2 pseudokinase (human) (UniProt P29597)
# [4] = molecular target: JAK3 JH1 catalytic (human) (UniProt P52333)
# STK16 (human) = STK16 (human) (UniProt O75716)
# PIM2 (human) = PIM2 (human) (UniProt Q9P1W9)
# DDR2 (human) = DDR2 (human) (UniProt Q16832)
# HCK (human) = HCK (human) (UniProt P08631)
# CSNK2A2 (human) = CSNK2A2 (human) (UniProt P19784)
# EPHA2 (human) = EPHA2 (human) (UniProt P29317)
# PTK2B (human) = PTK2B (human) (UniProt Q14289)
# RPS6KA6 KD2 (human) = RPS6KA6 KD2 (human) (UniProt Q9UK32)
# STK35 (human) = STK35 (human) (UniProt Q8TDR2)
# SNRK (human) = SNRK (human) (UniProt Q9NRH2)
# RPS6KA1 KD1 (human) = RPS6KA1 KD1 (human) (UniProt Q15418)
# PAK2 (human) = PAK2 (human) (UniProt Q13177)
# AURKC (human) = AURKC (human) (UniProt Q9UQB9)
# PIK3C2G (human) = PIK3C2G (human) (UniProt O75747)
# CSNK1E (human) = CSNK1E (human) (UniProt P49674)
# FGFR1 (human) = FGFR1 (human) (UniProt P11362)
# ULK2 (human) = ULK2 (human) (UniProt Q8IYT8)
# DDR1 (human) = DDR1 (human) (UniProt Q08345)
# MAP3K7 (human) = MAP3K7 (human) (UniProt O43318)
# ANKK1 (human) = ANKK1 (human) (UniProt Q8NFD2)
# STK10 (human) = STK10 (human) (UniProt O94804)
# PKN3 (M.tuberculosis) = PKN3 (M.tuberculosis) (UniProt Q6P5Z2)
# [5] = test system: MET (human), P08581 [M1250T]
# MAP3K10 (human) = MAP3K10 (human) (UniProt Q02779)
# DYRK1B (human) = DYRK1B (human) (UniProt Q9Y463)
# [6] = test system: KIT (human), P10721 [A829P]
# Sequence of PRKD1 (human) (Q15139 whole entry, looked up): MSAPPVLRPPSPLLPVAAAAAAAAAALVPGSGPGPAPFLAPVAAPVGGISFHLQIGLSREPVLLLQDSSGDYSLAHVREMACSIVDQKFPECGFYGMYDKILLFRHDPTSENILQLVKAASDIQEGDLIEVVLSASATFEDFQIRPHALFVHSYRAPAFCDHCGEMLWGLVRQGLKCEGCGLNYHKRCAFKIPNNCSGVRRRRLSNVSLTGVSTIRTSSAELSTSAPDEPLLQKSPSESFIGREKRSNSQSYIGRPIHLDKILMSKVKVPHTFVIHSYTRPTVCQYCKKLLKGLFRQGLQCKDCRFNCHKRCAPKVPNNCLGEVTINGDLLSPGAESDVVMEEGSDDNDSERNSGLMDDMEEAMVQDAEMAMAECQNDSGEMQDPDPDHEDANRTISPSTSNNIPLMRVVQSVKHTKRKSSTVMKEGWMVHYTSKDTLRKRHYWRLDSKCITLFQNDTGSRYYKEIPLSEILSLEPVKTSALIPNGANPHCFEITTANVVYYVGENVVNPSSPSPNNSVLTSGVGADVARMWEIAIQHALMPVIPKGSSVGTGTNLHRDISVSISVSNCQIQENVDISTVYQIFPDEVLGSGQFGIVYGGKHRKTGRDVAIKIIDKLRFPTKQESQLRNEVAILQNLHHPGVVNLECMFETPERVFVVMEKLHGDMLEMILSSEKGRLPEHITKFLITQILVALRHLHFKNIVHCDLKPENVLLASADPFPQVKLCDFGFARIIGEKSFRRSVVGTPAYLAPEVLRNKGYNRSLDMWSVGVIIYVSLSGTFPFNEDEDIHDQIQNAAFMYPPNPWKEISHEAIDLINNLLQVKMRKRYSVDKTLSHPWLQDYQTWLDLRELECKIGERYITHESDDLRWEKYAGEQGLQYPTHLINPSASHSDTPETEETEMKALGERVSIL
# Sequence of SNRK (human) (Q9NRH2 whole entry, looked up): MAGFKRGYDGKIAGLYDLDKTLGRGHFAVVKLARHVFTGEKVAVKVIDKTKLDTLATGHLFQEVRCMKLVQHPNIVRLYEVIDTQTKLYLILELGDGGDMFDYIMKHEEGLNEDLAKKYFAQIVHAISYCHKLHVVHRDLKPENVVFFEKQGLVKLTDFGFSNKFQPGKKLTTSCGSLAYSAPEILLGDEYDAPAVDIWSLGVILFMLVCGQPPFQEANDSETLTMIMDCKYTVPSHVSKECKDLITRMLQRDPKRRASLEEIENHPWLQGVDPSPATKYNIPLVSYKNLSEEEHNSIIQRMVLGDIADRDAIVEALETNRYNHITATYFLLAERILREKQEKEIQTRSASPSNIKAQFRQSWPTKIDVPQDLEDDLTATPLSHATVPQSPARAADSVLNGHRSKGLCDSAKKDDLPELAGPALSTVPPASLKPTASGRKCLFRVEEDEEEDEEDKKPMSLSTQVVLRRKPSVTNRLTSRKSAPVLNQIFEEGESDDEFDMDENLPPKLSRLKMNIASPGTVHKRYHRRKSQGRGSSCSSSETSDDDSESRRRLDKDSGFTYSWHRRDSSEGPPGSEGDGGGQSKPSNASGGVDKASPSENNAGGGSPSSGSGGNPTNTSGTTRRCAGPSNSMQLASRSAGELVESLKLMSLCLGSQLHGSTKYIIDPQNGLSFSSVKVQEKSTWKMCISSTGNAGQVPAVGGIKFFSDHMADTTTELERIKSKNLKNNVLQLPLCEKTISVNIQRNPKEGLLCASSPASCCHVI
# Sequence of AKT3 (human) (Q9Y243 whole entry, looked up): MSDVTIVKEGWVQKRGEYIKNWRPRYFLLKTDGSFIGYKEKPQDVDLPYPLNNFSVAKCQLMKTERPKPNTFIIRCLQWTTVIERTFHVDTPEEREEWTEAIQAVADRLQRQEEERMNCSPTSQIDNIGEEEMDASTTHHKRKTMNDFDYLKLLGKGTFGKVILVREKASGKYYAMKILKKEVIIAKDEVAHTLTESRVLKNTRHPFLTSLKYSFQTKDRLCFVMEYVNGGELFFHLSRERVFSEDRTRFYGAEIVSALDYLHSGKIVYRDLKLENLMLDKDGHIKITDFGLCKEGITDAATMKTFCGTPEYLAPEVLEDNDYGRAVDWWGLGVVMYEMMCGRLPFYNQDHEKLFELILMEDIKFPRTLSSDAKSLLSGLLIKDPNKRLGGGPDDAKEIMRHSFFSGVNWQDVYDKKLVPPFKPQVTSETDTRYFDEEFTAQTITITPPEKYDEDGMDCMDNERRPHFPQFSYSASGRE
# Sequence of FGFR1 (human) (P11362 whole entry, looked up): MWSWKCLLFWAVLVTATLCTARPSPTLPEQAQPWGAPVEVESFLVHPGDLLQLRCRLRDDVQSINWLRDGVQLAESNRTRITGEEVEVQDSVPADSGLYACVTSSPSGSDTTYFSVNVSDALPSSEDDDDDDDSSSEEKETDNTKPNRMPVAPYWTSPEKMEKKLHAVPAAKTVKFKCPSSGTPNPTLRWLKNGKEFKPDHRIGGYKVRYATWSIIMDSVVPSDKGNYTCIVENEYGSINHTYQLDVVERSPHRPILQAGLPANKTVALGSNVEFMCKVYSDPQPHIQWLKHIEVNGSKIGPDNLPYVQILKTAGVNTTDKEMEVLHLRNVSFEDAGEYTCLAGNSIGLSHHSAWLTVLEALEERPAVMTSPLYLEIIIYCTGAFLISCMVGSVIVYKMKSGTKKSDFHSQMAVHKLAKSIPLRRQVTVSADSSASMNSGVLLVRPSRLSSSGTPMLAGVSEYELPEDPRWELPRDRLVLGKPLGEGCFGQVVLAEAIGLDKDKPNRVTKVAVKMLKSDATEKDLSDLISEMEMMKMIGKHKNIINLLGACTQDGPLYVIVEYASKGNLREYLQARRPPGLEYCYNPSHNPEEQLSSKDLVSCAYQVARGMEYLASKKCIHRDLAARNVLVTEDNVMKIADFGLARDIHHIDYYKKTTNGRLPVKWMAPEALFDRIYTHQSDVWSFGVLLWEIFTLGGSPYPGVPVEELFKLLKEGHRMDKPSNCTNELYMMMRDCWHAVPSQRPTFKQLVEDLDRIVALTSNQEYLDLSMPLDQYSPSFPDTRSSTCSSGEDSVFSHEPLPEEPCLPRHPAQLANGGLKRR
# Sequence of EPHA2 (human) (P29317 whole entry, looked up): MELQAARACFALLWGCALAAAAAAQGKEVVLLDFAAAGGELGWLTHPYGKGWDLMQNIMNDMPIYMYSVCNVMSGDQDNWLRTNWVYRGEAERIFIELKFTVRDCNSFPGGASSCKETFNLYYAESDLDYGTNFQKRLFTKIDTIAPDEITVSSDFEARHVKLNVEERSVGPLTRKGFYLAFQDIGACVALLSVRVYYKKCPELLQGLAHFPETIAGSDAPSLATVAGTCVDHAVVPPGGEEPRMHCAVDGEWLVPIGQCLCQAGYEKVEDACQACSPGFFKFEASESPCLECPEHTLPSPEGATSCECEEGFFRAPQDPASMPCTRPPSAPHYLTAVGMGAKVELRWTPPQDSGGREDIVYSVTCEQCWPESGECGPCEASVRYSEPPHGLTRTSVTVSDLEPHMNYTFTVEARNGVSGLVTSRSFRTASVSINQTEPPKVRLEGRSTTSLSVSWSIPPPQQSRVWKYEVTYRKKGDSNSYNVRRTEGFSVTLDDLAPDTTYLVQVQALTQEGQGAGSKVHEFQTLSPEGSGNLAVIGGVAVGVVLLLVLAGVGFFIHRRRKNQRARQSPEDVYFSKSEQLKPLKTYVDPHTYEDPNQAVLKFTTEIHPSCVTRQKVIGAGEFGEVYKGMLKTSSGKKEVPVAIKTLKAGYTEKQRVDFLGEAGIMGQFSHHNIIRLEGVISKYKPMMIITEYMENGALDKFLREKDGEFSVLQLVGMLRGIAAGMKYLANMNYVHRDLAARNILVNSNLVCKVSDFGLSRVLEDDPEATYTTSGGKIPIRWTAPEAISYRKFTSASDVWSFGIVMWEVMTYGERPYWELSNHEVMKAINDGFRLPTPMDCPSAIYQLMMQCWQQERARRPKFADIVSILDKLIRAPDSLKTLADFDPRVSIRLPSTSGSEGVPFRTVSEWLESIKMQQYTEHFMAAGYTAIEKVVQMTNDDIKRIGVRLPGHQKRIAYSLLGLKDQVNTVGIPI
# Sequence of DDR2 (human) (Q16832 whole entry, looked up): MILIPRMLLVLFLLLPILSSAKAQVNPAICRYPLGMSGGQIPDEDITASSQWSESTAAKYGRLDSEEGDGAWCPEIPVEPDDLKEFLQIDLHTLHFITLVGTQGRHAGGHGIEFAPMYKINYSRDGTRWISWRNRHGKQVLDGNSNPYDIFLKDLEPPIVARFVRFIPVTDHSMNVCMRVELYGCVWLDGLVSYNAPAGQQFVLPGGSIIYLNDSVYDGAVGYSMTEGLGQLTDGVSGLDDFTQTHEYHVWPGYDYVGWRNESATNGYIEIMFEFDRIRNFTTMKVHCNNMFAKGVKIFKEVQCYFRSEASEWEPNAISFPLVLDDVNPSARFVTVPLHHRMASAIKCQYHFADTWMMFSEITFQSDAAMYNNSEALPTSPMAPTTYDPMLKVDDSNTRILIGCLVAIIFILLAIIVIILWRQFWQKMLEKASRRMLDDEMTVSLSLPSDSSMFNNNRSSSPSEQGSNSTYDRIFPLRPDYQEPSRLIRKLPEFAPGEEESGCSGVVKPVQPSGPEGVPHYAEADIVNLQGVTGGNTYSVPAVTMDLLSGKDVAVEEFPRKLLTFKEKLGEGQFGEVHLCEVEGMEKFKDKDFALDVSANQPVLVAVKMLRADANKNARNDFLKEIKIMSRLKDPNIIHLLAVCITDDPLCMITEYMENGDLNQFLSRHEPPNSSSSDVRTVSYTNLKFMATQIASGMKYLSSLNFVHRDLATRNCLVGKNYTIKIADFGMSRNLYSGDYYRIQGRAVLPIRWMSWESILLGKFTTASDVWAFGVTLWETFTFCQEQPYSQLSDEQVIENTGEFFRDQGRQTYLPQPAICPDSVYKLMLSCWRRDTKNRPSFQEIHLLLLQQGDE
smiles,measurement,setting,value
CCC(=O)N1CCN(c2ccc(-n3c(=O)ccc4cnc5ccc(-c6cnc7ccccc7c6)cc5c43)cc2C(F)(F)F)CC1,"kinase still bound, per cent of control",STK32C (human),100%
same,"kinase still bound, per cent of control",[1],0.6%
same,"kinase still bound, per cent of control",EPHA6 (human),75%
same,"kinase still bound, per cent of control",PIP4K2B (human),100%
same,"kinase still bound, per cent of control",DCLK3 (human),97%
same,"kinase still bound, per cent of control",PRKD1 (human),99%
same,per cent of control,STK39 (human),100%
same,"kinase still bound, per cent of control",[2],70%
same,"kinase still bound, per cent of control",MAPK7 (human),100%
same,"kinase still bound, per cent of control",AKT3 (human),77%
same,"kinase still bound, per cent of control",SRMS (human),92%
same,per cent of control,CDK14 (human),99%
same,"kinase still bound, per cent of control",PIP5K1C (human),80%
same,"kinase still bound, per cent of control",[3],55%
same,"kinase still bound, per cent of control",[4],100%
same,"kinase still bound, per cent of control",STK16 (human),18%
same,"kinase still bound, per cent of control",PIM2 (human),62%
same,"kinase still bound, per cent of control",DDR2 (human),100%
same,"kinase still bound, per cent of control",HCK (human),77%
same,"kinase still bound, per cent of control",CSNK2A2 (human),11%
same,"kinase still bound, per cent of control",EPHA2 (human),59%
same,"kinase still bound, per cent of control",PTK2B (human),100%
same,"kinase still bound, per cent of control",RPS6KA6 KD2 (human),86%
same,"kinase still bound, per cent of control",STK35 (human),18%
same,"kinase still bound, per cent of control",SNRK (human),60%
same,"kinase still bound, per cent of control",RPS6KA1 KD1 (human),68%
same,"kinase still bound, per cent of control",PAK2 (human),100%
same,"kinase still bound, per cent of control",AURKC (human),91%
same,"kinase still bound, per cent of control",PIK3C2G (human),11%
same,"kinase still bound, per cent of control",CSNK1E (human),59%
same,"kinase still bound, per cent of control",FGFR1 (human),96%
same,"kinase still bound, per cent of control",ULK2 (human),75%
same,"kinase still bound, per cent of control",DDR1 (human),100%
same,"kinase still bound, per cent of control",MAP3K7 (human),47%
same,"kinase still bound, per cent of control",ANKK1 (human),93%
same,"kinase still bound, per cent of control",STK10 (human),79%
same,"kinase still bound, per cent of control",PKN3 (M.tuberculosis),64%
same,"kinase still bound, per cent of control",[5],79%
same,"kinase still bound, per cent of control",MAP3K10 (human),99%
same,"kinase still bound, per cent of control",DYRK1B (human),87%
COC(=O)Nc1ccc(-c2nc(N3CCOCC3)c3cnn(C4CCN(C(=O)OC)CC4)c3n2)cc1,"kinase still bound, per cent of control",STK32C (human),89%
same,"kinase still bound, per cent of control",[1],4.9%
same,"kinase still bound, per cent of control",EPHA6 (human),90%
same,"kinase still bound, per cent of control",PIP4K2B (human),100%
same,"kinase still bound, per cent of control",DCLK3 (human),92%
same,"kinase still bound, per cent of control",PRKD1 (human),95%
same,per cent of control,STK39 (human),67%
same,"kinase still bound, per cent of control",[2],100%
same,"kinase still bound, per cent of control",MAPK7 (human),100%
same,"kinase still bound, per cent of control",AKT3 (human),100%
same,"kinase still bound, per cent of control",SRMS (human),78%
same,per cent of control,CDK14 (human),100%
same,"kinase still bound, per cent of control",PIP5K1C (human),100%
same,"kinase still bound, per cent of control",[3],78%
same,"kinase still bound, per cent of control",[4],100%
same,"kinase still bound, per cent of control",STK16 (human),77%
same,"kinase still bound, per cent of control",PIM2 (human),100%
same,"kinase still bound, per cent of control",DDR2 (human),100%
same,"kinase still bound, per cent of control",HCK (human),100%
same,"kinase still bound, per cent of control",CSNK2A2 (human),83%
same,"kinase still bound, per cent of control",EPHA2 (human),100%
same,"kinase still bound, per cent of control",PTK2B (human),92%
same,"kinase still bound, per cent of control",RPS6KA6 KD2 (human),96%
same,"kinase still bound, per cent of control",STK35 (human),91%
same,"kinase still bound, per cent of control",SNRK (human),100%
same,"kinase still bound, per cent of control",RPS6KA1 KD1 (human),100%
same,"kinase still bound, per cent of control",PAK2 (human),91%
same,"kinase still bound, per cent of control",[6],91%
same,"kinase still bound, per cent of control",AURKC (human),100%
same,"kinase still bound, per cent of control",PIK3C2G (human),24%
same,"kinase still bound, per cent of control",CSNK1E (human),72%
same,"kinase still bound, per cent of control",FGFR1 (human),100%
same,"kinase still bound, per cent of control",ULK2 (human),99%
same,"kinase still bound, per cent of control",DDR1 (human),100%
same,"kinase still bound, per cent of control",MAP3K7 (human),70%
same,"kinase still bound, per cent of control",ANKK1 (human),97%
same,"kinase still bound, per cent of control",STK10 (human),100%
same,"kinase still bound, per cent of control",PKN3 (M.tuberculosis),73%
same,"kinase still bound, per cent of control",MAP3K10 (human),100%
same,"kinase still bound, per cent of control",DYRK1B (human),93%
CC(C)n1nc(-c2cc3cc(O)ccc3[nH]2)c2c(N)ncnc21,"kinase still bound, per cent of control",STK32C (human),69%
same,"kinase still bound, per cent of control",EPHA6 (human),5.2%
same,"kinase still bound, per cent of control",PIP4K2B (human),55%
same,"kinase still bound, per cent of control",DCLK3 (human),10%
same,"kinase still bound, per cent of control",PRKD1 (human),100%
same,per cent of control,STK39 (human),97%
same,"kinase still bound, per cent of control",[2],8.2%
same,"kinase still bound, per cent of control",MAPK7 (human),100%
same,"kinase still bound, per cent of control",AKT3 (human),29%
same,"kinase still bound, per cent of control",SRMS (human),61%
same,per cent of control,CDK14 (human),100%
same,"kinase still bound, per cent of control",PIP5K1C (human),9.8%
same,"kinase still bound, per cent of control",[3],2.6%
same,"kinase still bound, per cent of control",[4],0%
same,"kinase still bound, per cent of control",STK16 (human),34%
same,"kinase still bound, per cent of control",PIM2 (human),0.6%
same,"kinase still bound, per cent of control",DDR2 (human),11%
same,"kinase still bound, per cent of control",HCK (human),2.5%
same,"kinase still bound, per cent of control",CSNK2A2 (human),3.5%
same,"kinase still bound, per cent of control",EPHA2 (human),9.4%
same,"kinase still bound, per cent of control",PTK2B (human),100%
same,"kinase still bound, per cent of control",RPS6KA6 KD2 (human),47%
same,"kinase still bound, per cent of control",SNRK (human),100%
same,"kinase still bound, per cent of control",RPS6KA1 KD1 (human),32%
same,"kinase still bound, per cent of control",PAK2 (human),31%
same,"kinase still bound, per cent of control",[6],10%
same,"kinase still bound, per cent of control",AURKC (human),68%
same,"kinase still bound, per cent of control",PIK3C2G (human),3.4%
same,"kinase still bound, per cent of control",CSNK1E (human),0.1%
same,"kinase still bound, per cent of control",FGFR1 (human),8.5%
same,"kinase still bound, per cent of control",ULK2 (human),39%
same,"kinase still bound, per cent of control",DDR1 (human),6.4%
same,"kinase still bound, per cent of control",MAP3K7 (human),22%
same,"kinase still bound, per cent of control",ANKK1 (human),8.8%
same,"kinase still bound, per cent of control",STK10 (human),0.5%
same,"kinase still bound, per cent of control",PKN3 (M.tuberculosis),24%
same,"kinase still bound, per cent of control",[5],100%
same,"kinase still bound, per cent of control",MAP3K10 (human),53%
same,"kinase still bound, per cent of control",DYRK1B (human),59%
